Reference: US20250163078A1, “IMIDAZOPYRIDAZINE DERIVATIVE, AND PREPARATION METHOD THEREFOR, PHARMACEUTICAL COMPOSITION THEREOF AND USE THEREOF” (SHANGHAI SIMR BIOTECHNOLOGY CO., LTD., priority 2022, published 2025)
pKi: −log10 of the molar value.

Key:
[1] = target: T1, α2-GABAA receptor (Homo sapiens, UniProt P18507+P47869); experiment: Radioligand (3H-flunitrazepam) competitive binding assay at the BZD site; conditions: membranes of HEK293 cells stably expressing human α2-GABAA receptor (α2β3γ2); 1 nM 3H-flunitrazepam; Ki calculated from IC50; read-out: α2 Ki
T1 construct: expressed in transfected cells
From the text: (§1) An α subunit, a β subunit, and a γ subunit are essential for the formation of a complete functional GABAA receptor. […] The α1-GABAAR-HEK293 cell model simultaneously expressed the α1 subunit (protein sequence available in GenBank with an accession No.: NM_000806.5), the β3 subunit (protein sequence available in GenBank with an accession No.: NM_000814.5), and the γ2 subunit (protein sequence available in GenBank with an accession No.: NM_000816.3). The α2-GABAAR-HEK293 cell model simultaneously expressed the α2 subunit (protein sequence available in GenBank with an accession No.: NM_000807.4), the β3 subunit (protein sequence available in GenBank with an accession No.: NM_000814.5), and the γ2 subunit (protein sequence available in GenBank with an accession No.: NM_000816.3).
(§2) The above cell lines were subcultured. The α2-GABAAR-HEK293 cells were expanded for assay of the benzodiazepine (BZD) site affinity of compounds for GABAA receptors.
The affinity of the compounds for the α2-GABAA receptor was determined by competing with ^3H-flunitrazepam (isotope ^3H-labelled flunitrazepam) for binding to the BZD site on the membrane proteins of HEK293 cells stably expressing the human α2-GABAA receptor.
Membrane preparation: The cells were suspended in 50 mM Tris-HCl buffer (pH=7.4), homogenized 10 times (20 s for each time) with a homogenizer on ice, and then centrifuged at 4° C. at 1000 g for 10 min. The supernatant was taken. The above steps were repeated. The supernatant was centrifuged (33800 g; Thermo, rotor: A27-8×50) at 4° C. for 60 min. The pellet was resuspended in Tris buffer (50 mM Tris-HCl, 10 mM MgCl2, 0.5 mM EDTA, and 10% glycerol). The protein content was determined (BCA (bicinchoninic acid) protein quantification assay based on the copper ion reduction method, with a BCA kit purchased from Pierce (Annoron (Beijing) Biotechnology Co., Ltd.)), and 1 mL aliquots were prepared and stored at −80° C.
Radioligand competitive binding assay: This assay was performed in a 200 μL system (96-well plate) containing 100 μL of cell membranes. The concentration of ^3H-flunitrazepam was 1 nM, and the concentrations of the test compounds were in the range of […]. Flumazenil was used as a control. To each low control (LC) well was added 1 μL of 2 mM flumazenil (the final concentration of 10 μM), and to each high control (HC) well was added 1 μL of dimethyl sulfoxide. The final concentration of the target membrane protein was […]. All sample stock solutions of test compounds were 10 mM solutions in dimethyl sulfoxide. All the samples were diluted to a concentration of 0.2 mM with dimethyl sulfoxide, and then subjected to a 4-fold serial dilution to give a total of 8 working concentration gradients. The 96-well plate was sealed with a plate sealing membrane and then incubated on a shaker at room temperature for 1 h. Meanwhile, a GF/C filter plate was soaked in a plate soaking buffer (0.3% PEI (polyethyleneimine, purchased from: Sigma-Aldrich, model: P314), stored at 4° C.) for at least 0.5 h. After the binding incubation was completed, the cells were harvested onto the GF/C filter plate using a cell harvester and washed 4 times with a washing buffer (50 mM Tris-HCl, pH 7.4, stored at 4° C.). After drying in an oven at 50° C. for 1 h, the dried GF/C filter plate was bottom-sealed. The residual radioactivity on the filter membrane was detected by liquid scintillation counting. Scintillation fluid was added at 50 µL/well, and then the plate was sealed. Readings were taken using Microbeta^2 (microplate counter, purchased from: PerkinElmer, model: CNLL0153). The inhibitory activity of the test samples on the binding of ^3H-flunitrazepam to the GABAA receptor membrane protein was calculated.

[2] = target: T2, α1-GABAA receptor (Homo sapiens, UniProt P14867+P18507); experiment: Whole-cell patch-clamp electrophysiological test of positive allosteric modulation, α1-GABAAR-HEK293 cells; format: cell-based; conditions: compound 100 nM; GABA about EC2-4; normalised to positive compound CVL-865 (=100%); negative value = reverse allosteric modulation; read-out: Positive allosteric modulation activity on α1-GABAAR
T2 construct: expressed in transfected cells
From the text: as §1, §2
(§3) The positive regulation activity of the test drugs on the α1-GABAA receptor and the α2-GABAA receptor was detected by the electrophysiological method. The specific method was as follows:
(§4) Compound concentration setting: the final concentration of the compounds used for screening was 100 nM. […] The components of the extracellular solution (ECS) for electrophysiology were as follows: 150 mM NaCl, 5 mM KCl, 2.5 mM CaCl2, 1 mM MgCl2, 10 mM HEPES, and 10 mM glucose (pH 7.4); the formulation of the intracellular solution (ICS) of electrodes for electrophysiology was as follows: 140 mM CsCl, 11 mM EGTA, 10 mM HEPES, 2 mM CaCl2, 1 mM MgCl2, 4 mM MgATP, and 2 mM TEA (pH 7.3). GABA (γ-aminobutyric acid) powder was prepared into a mother liquor with pure water, which was then diluted in ECS; the compounds were first prepared into 4 mM mother liquors with dimethyl sulfoxide and then gradually diluted to corresponding concentrations in GABA-ECS. The solutions were all prepared freshly prior to the electrophysiological test.
(§5) Electrophysiological signal acquisition was performed using an EPC 10 amplifier and PatchMaster software (HEKA) or an Axon700B amplifier and Clampex software (AXON).
(§6) The recording electrode was made by pulling borosilicate glass, with an electrode resistance of 4-6 MΩ. Extracellular administration was performed using the ALA-VC-8PG™ system. A single, independently growing cell was selected. After the glass electrode formed a good seal with the cell, the membrane was ruptured to form the whole-cell configuration. The cell membrane potential was clamped at −60 mV and recorded in Gap-free mode. During the test, the extracellular solution was first applied extracellularly for about 20 s. After the baseline (Iprebaseline) stabilized, the extracellular solution was switched to GABA-ECS. At this time, the current caused by GABA (Igaba) could be detected. After about 10-20 s, when the current stabilized, the extracellular solution was switched to a mixed solution of the compound and GABA-ECS. At this point, the current caused by both the compound and GABA (Itreatment) could be detected. Finally, the solution was switched to the extracellular solution, and the test was terminated after recording for 20-40 s.
(§7) The current values at each stage were calculated based on the average value of the current after stabilization under the corresponding conditions. We defined the control current as Igaba−Iprebaseline, and the current after compound treatment as Itreatment−Iprebaseline. The allosteric modulation activity of the compounds was expressed as a percentage, calculated by the following formula: functional activity=[(Itreatment−Igaba)/(Igaba−Iprebaseline)]×100%.

[3] = target: T1, α2-GABAA receptor; experiment: Whole-cell patch-clamp electrophysiological test of positive allosteric modulation, α2-GABAAR-HEK293 cells; format: cell-based; conditions: compound 100 nM; GABA 0.10-0.11 M [sic] (about EC70.8); normalised to positive compound CVL-865 (=100%); read-out: Positive allosteric modulation activity on α2-GABAAR
From the text: as §1, §2, §3, §4, §5, §6, §7

| Compound | pKi [1] | activation at 0.1 µM [2] [%] | activation at 0.1 µM [3] [%] |
| --- | --- | --- | --- |
| CCn1cnc2c(-c3ccc(F)c(-c4ccn5c(C6CC6)nnc5c4COC)c3)cnnc21 [Example 1, 4-(3-(3-Cyclopropyl-8-(methoxymethyl)-[1,2,4]triazolo[4,3-a]pyridin-7-yl)-4-fluorophenyl)-7-ethyl-7H-imidazo[4,5-c]pyridazine] | 7.98 | 70 | 129 |
| CCn1cnc2c(-c3ccc(F)c(-c4ccn5c(C6CC(OC)C6)nnc5c4OC)c3)cnnc21 (centres unmarked) [Example 6, 7-Ethyl-4-(4-fluoro-3-(8-methoxy-3-(3-methoxycyclobutyl)-[1,2,4]triazolo[4,3-a]pyridin-7-yl)phenyl)-7H-imidazo[4,5-c]pyridazine] |  | -16 | 118 |
| CCn1cnc2c(-c3ccc(F)c(-c4cn5cc(C6(F)CC6)nc5cc4OC)c3)cnnc21 [Example 12, 7-Ethyl-4-(4-fluoro-3-(2-(1-fluorocyclopropyl)-7-methoxyimidazo[1,2-a]pyridin-6-yl)phenyl)-7H-imidazo[4,5-c]pyridazine] | 8.24 | 32 | 104 |
| CCn1cnc2c(-c3ccc(F)c(-c4ccn5c(C6CCOC(C)(C)C6)nnc5c4OC)c3)cnnc21 (centres unmarked) [Example 16, 4-(3-(3-(2,2-Dimethyltetrahydro-2H-pyran-4-yl)-8-methoxy-[1,2,4]triazolo[4,3-a]pyridin-7-yl)-4-fluorophenyl)-7-ethyl-7H-imidazo[4,5-c]pyridazine] | 8.09 | -56 | 95 |
| CCn1cnc2c(-c3ccc(F)c(-c4ccn5c(C6CCC6)nnc5c4OC)c3)cnnc21 [Example 17, 4-(3-(3-Cyclobutyl-8-methoxy-[1,2,4]triazolo[4,3-a]pyridin-7-yl)-4-fluorophenyl)-7-ethyl-7H-imidazo[4,5-c]pyridazine] | 8.55 | -49 | 100 |
| COc1c(-c2cc(-c3cnnc4c3ncn4C(C)C)ccc2F)ccn2c(C3CC3)nnc12 [Example 27, 4-(3-(3-Cyclopropyl-8-methoxy-[1,2,4]triazolo[4,3-a]pyridin-7-yl)-4-fluorophenyl)-7-isopropyl-7H-imidazo[4,5-c]pyridazine] | 8.22 | 4 | 110 |
| CCn1cnc2c(-c3ccc(F)c(-c4ccn5c(C6COC6)nnc5c4OC)c3)cnnc21 [Example 28, 7-Ethyl-4-(4-fluoro-3-(8-methoxy-3-(oxetan-3-yl)-[1,2,4]triazolo[4,3-a]pyridin-7-yl)phenyl)-7H-imidazo[4,5-c]pyridazine] | 8.29 | 19 | 126 |
| CCn1cnc2c(-c3ccc(F)c(-c4ccn5c(C(C)C)nnc5c4OC)c3)cnnc21 [Example 29, 7-Ethyl-4-(4-fluoro-3-(8-methoxy-3-isopropyl-[1,2,4]triazolo[4,3-a]pyridin-7-yl)phenyl)-7H-imidazo[4,5-c]pyridazine] | 8.18 | -51 | 156 |
| CCc1cn2cc(-c3cc(-c4cnnc5c4ncn5CC)ccc3F)c(OC)cc2n1 [Example 30, 7-Ethyl-4-(3-(2-ethyl-7-methoxyimidazo[1,2-a]pyridin-6-yl)-4-fluorophenyl)-7H-imidazo[4,5-c]pyridazine] | 7.92 | 6 | 143 |
| CCn1cnc2c(-c3ccc(F)c(-c4ccn5c(C)nnc5c4OC)c3)cnnc21 [Example 32, 7-Ethyl-4-(4-fluoro-3-(8-methoxy-3-methyl-[1,2,4]triazolo[4,3-a]pyridin-7-yl)phenyl)-7H-imidazo[4,5-c]pyridazine] | 8.54 | -39 | 102 |
| CCn1cnc2c(-c3ccc(F)c(-c4ccn5c(C6CCOCC6)nnc5c4OC)c3)cnnc21 [Example 34, 7-Ethyl-4-(4-fluoro-3-(8-methoxy-3-(tetrahydro-2H-pyran-4-yl)-[1,2,4]triazolo[4,3-a]pyridin-7-yl)phenyl)-7H-imidazo[4,5-c]pyridazine] | 8.09 | 25 | 95 |
| CCn1cnc2c(-c3ccc(F)c(-c4cn5cc(C6CCOCC6)nc5cc4OC)c3)cnnc21 [Example 36, 7-Ethyl-4-(4-fluoro-3-(7-methoxy-2-(tetrahydro-2H-pyran-4-yl)imidazo[1,2-a]pyridin-6-yl)phenyl)-7H-imidazo[4,5-c]pyridazine] | 7.93 | 49 | 89 |
| CCn1cnc2c(-c3ccc(F)c(-c4ccn5c(C6CC6)nnc5c4OC)c3)cnnc21 [Example 38, 4-(3-(3-Cyclopropyl-8-methoxy-[1,2,4]triazolo[4,3-a]pyridin-7-yl)-4-fluorophenyl)-7-ethyl-7H-imidazo[4,5-c]pyridazine] | 8.19 | -14 | 94 |
| CCn1cnc2c(-c3ccc(F)c(-c4cn5cc(C(F)F)nc5cc4OC)c3)cnnc21 [Example 41, 4-(3-(2-(Difluoromethyl)-7-methoxyimidazo[1,2-a]pyridin-6-yl)-4-fluorophenyl)-7-ethyl-7H-imidazo[4,5-c]pyridazine] | 9.96 | 59 | 178 |
